Data published in PMC7551059, “Bioactive Bianthraquinones and Meroterpenoids from a Marine-Derived Stemphylium sp. Fungus” (Marine Drugs, 2020).
Like-named read-outs stand apart in the source and are kept apart here.

Test system: lipopolysaccharide (LPS)-induced nitric oxide (NO) production in RAW 264.7 mouse macrophages
Assay: LPS-induced NO (nitrite) production in RAW 264.7 cells, Griess reagent
Format: cell-based
Settings: for IC50: Mus musculus
Procedure: A RAW 264.7 murine macrophage cell line was purchased from American Type Cell Culture (Rockville, MD, USA). Cells were cultured in DMEM with 10% fetal bovine serum and antibiotic−antimycotics (i.e., penicillin G sodium, 100 units/mL; streptomycin, 100 μg/mL; amphotericin B, 250 ng/mL) at 37 °C in a humidified incubator with 5% carbon dioxide. All reagents used for cell culture were purchased from Gibco® Invitrogen Corp. (Grand Island, NY, USA).
The concentration of nitrite in the cultured media was used as a measure of NO production. The assay was performed as previously described. RAW 264.7 cells were plated at a density of 5 × 10^5 per well in a 24-well culture plate and incubated in a 37 °C humidified incubator with 5% CO2 in air for 18 h. The incubated cells were pretreated with phenol-red-free medium containing various concentrations of tested compounds for 30 min, followed by 1 μg/mL of LPS treatment for 18 h more. Aliquots of the supernatant from each well (100 μL) were transferred to a 96-well plate, and nitrite concentration was measured using Griess reagent. After the Griess reaction, MTT solution (final concentration of 500 μg/mL) was added to each well and further incubated for 4 h at 37 °C. Each medium was discarded, and dimethyl sulfoxide was added to each well to dissolve generated formazan. The absorbance was measured at 570 nm, and percent survival was determined by comparison with LPS treated control group. All reagents used in the nitrite production measurement were purchased from Sigma-Aldrich (St. Louis, MO, USA).

[1] = RAW264.7, RAW 264.7 cells, compounds 30 min before LPS 1 μg/mL, 18 h, read-out: IC50, suppression of LPS-induced NO production

SMILES	IC50 [1]	other results
COc1cc2c(c(O)c1-c1c(OC)cc(O)c3c1C(=O)C1=C(C3=O)[C@H](O)[C@@H](O)[C@@](C)(O)[C@@H]1O)C(=O)c1cc(O)c(C)cc1C2=O [Compound 5, alterporriol G]		IC50 (RAW264.7, read-out: IC50, suppression of LPS-induced NO production): 8.4 ± 0.4 µM
COc1c(-c2cc(O)c3c(c2OC)C(=O)c2cc(C)c(O)cc2C3=O)cc(O)c2c1C(=O)C1=C(C2=O)[C@H](O)[C@@H](O)[C@@](C)(O)[C@H]1O (relative stereo) [Compound 2, alterporriol Z2]	16.1 ± 1.1 µM	
COc1cc(O)c2c(c1)C(=O)c1cc(C)c(O)c(-c3c(OC)cc(O)c4c3C(=O)C3=C(C4=O)[C@H](O)[C@@H](O)[C@@](C)(O)[C@H]3O)c1C2=O [Compound 6, alterporriol N]	10.7 ± 0.6 µM	
COc1cc(O)c2c(c1-c1c(OC)cc(O)c3c1C(=O)c1cc(C)c(O)cc1C3=O)C(=O)C1=C(C[C@@H](O)[C@@](C)(O)[C@@H]1O)C2=O [Compound 4, alterporriol F]	9.6 ± 1.6 µM	
COc1cc(O)c2c(c1)C(=O)c1cc(C)c(O)c(-c3c(OC)cc(O)c4c3C(=O)C3=C(C4=O)C(OC)C(O)C(C)(O)C3O)c1C2=O (stereo not drawn) [Compound 3, alterporriol Z3]		IC50, suppression of LPS-induced NO production (RAW 264.7 cells, compounds 30 min before LPS 1 μg/mL, 18 h): inactive
COc1c(-c2cc(O)c3c(c2OC)C(=O)c2cc(C)c(O)cc2C3=O)cc(O)c2c1C(=O)C1=C(C2=O)C(O)C(O)C(C)(O)C1O (stereo not drawn) [Compound 1, alterporriol Z1]	11.6 ± 0.7 µM	
